Source: PubChem BioAssay AID2060485 (Molecular Pharmacology Branch, DTP, NCI, 2025)

System: A375 multi-cell spheroids with HUVEC/MSC, viability
Test: Anticancer human tumor A375 cell line growth inhibition [GQUAD];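 also: spheroids exposed to compounds for seven days before readout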
Details: for IC50: curve of first compound; for viability, T/C: stronger effect = lower value; active = viability on the fitted dose curve at most 10% of control; inactive = the rest
Excerpt: DNA G-quadruplex Stabilizer Agents in Combinations in Complex Spheroids
A high-throughput screen of multi-cell type tumor spheroids was designed to identify active combinations of DNA G-quadruplex stabilizer agents and targeted small molecules. Complex spheroids include a stromal component modeled by human endothelial cells (HUVEC) and fibroblasts modeled by human mesenchymal stem cells (MSCs). The concentration ranges selected for each drug and investigational agent were based upon clinically achievable concentrations if the clinical Cmax of the agent was known.
Compounds. The drugs and investigational agents: pidnarulex (CX-5461; NSC782164), APTO-253 (NSC789042), BRACO-19 (NSC847499), peposertib (NSC802822), ceralasertib (NSC780249), elimusertib (NSC800525), camonsertib (NSC841442), AZD-1390 (NSC803789), olaparib (NSC753686), talazoparib (NSC767125), ART-558 (NSC835418), sotorasib (NSC818433), MRTX-1133 (NSC836407), SN-38 (NSC673596), topotecan (NSC609699), etoposide (NSC141540), doxorubicin (NSC123127), gemcitabine (NSC613327), 5-fluorouracil (NSC19893), paclitaxel (NSC125973), vemurafenib (NSC761431), panobinostat (NSC761190), R-306465 (JNJ-16241199; NSC773264), adavosertib (NSC754352), TP-3654 (NSC805149), carboplatin (NSC241240), KSQ-4279 (NSC840948), and staurosporine (NSC755774) were obtained from the National Cancer Institute (NCI) Developmental Therapeutics Program Chemical Repository (34). The FDA-approved anticancer drug set is available from the NCI Developmental Therapeutics Program. […] The stock solutions were prepared in dimethyl sulfoxide (DMSO, Sigma-Aldrich, St. Louis, MO, cat. D2650) at 800-fold the tested concentration and stored at -70 degrees C prior to their use. All drugs and investigational agents were tested over a range starting from a high concentration at or near the clinical Cmax and decreasing in half-log increments. If the clinical Cmax for an agent had not been determined, the highest concentration tested was 10 microM.
2.3 Cell Culture. All cells were maintained in an incubator at 37 degrees C and 5% CO2 with 95% humidity. The PDC lines were cultured according to standard operating procedures established by the NCI PDMR. All PDCs were thawed and cultured in Matrigel-coated flasks prepared with a working solution of 1X Ham's F-12 nutrient mix, without supplementation (Invitrogen, cat. 11765054), 100 U/mL penicillin-streptomycin (Invitrogen, cat. 15140122), and 2.5% Matrigel (Corning Inc., cat. 354248) for the first three passages. The 857933-349-R-J2-PDC line was cultured in 6C/Colon 1B media, which includes advanced DMEM/F-12 (Thermo Fisher Scientific, cat. 12634028), 10 mM HEPES (Thermo Fisher Scientific, cat. 15630080), 1X GlutaMAX supplement (Thermo Fisher Scientific, cat. 35050061), 0.1 mg/mL primocin (InvivoGen, cat. ant-pm-2), 10% defined fetal bovine serum, heat inactivated (HyClone Laboratories Inc., cat. SH30070.03HI), 50% L-WRN conditioned media (ATCC, cat. CRL-3276), 1.25 mM N-Acetyl-L-cysteine (Sigma-Aldrich, cat. A9165), 10 mM nicotinamide (Sigma-Aldrich, cat. N0636), 1X B-27 supplement (Thermo Fisher Scientific, cat. 17504044), 1X N-2 supplement (Thermo Fisher Scientific, cat. 17502048), 10 microM Y-27632 dihydrochloride (Tocris Bioscience, cat. 1254), and 50 ng/mL human EGF recombinant protein (Thermo Fisher Scientific, cat. PHG0311). The 485176-168-R4-J1-PDC line was cultured in Panc media, which includes all 6C/Colon 1B media components plus 100 ng/mL human FGF-10 (Thermo Fisher Scientific, cat. 100-26), 500 nM SB-431542 (Selleckchem, cat. S1067), and gastrin (Tocris, cat. 3006).
[…]

[1] = second compound 0.0316 µM, first compound 0.0316 µM
[2] = second compound 0.0316 µM, first compound 0.1 µM
[3] = second compound 0.0316 µM, first compound 0.316 µM
[4] = second compound 0.0316 µM, first compound 1 µM
[5] = second compound 0.0316 µM, first compound 3.16 µM
[6] = second compound 0.0316 µM, first compound 10 µM
[7] = second compound 0.1 µM, first compound 0.0316 µM
[8] = second compound 0.1 µM, first compound 0.1 µM
[9] = second compound 0.1 µM, first compound 0.316 µM
[10] = second compound 0.1 µM, first compound 1 µM
[11] = second compound 0.1 µM, first compound 3.16 µM
[12] = second compound 0.1 µM, first compound 10 µM
[13] = second compound 0.316 µM, first compound 0.0316 µM
[14] = second compound 0.316 µM, first compound 0.1 µM
[15] = second compound 0.316 µM, first compound 0.316 µM
[16] = second compound 0.316 µM, first compound 1 µM
[17] = second compound 0.316 µM, first compound 3.16 µM
[18] = second compound 0.316 µM, first compound 10 µM
[19] = second compound 1 µM, first compound 0.0316 µM
[20] = second compound 1 µM, first compound 0.1 µM
[21] = second compound 1 µM, first compound 0.316 µM
[22] = second compound 1 µM, first compound 1 µM
[23] = second compound 1 µM, first compound 3.16 µM
[24] = second compound 1 µM, first compound 10 µM
[25] = second compound 3.16 µM, first compound 0.0316 µM
[26] = second compound 3.16 µM, first compound 0.1 µM
[27] = second compound 3.16 µM, first compound 0.316 µM
[28] = second compound 3.16 µM, first compound 1 µM
[29] = second compound 3.16 µM, first compound 3.16 µM
[30] = second compound 3.16 µM, first compound 10 µM
[31] = second compound 10 µM, first compound 0.0316 µM
[32] = second compound 10 µM, first compound 0.1 µM
[33] = second compound 10 µM, first compound 0.316 µM
[34] = second compound 10 µM, first compound 1 µM
[35] = second compound 10 µM, first compound 3.16 µM
[36] = second compound 10 µM, first compound 10 µM

C=CCn1c(=O)c2cnc(Nc3ccc(N4CCN(C)CC4)cc3)nc2n1-c1cccc(C(C)(C)O)n1 + CN(C)c1ccc(Nc2c3ccc(NC(=O)CCN4CCCC4)cc3nc3cc(NC(=O)CCN4CCCC4)ccc23)cc1
inactive: viability, T/C [1] 99.7% | viability, T/C [2] 105% | viability, T/C [3] 96.4% | viability, T/C [4] 55.9% | viability, T/C [5] 12.3% | viability, T/C [7] 98.4% | viability, T/C [8] 100% | viability, T/C [9] 104% | viability, T/C [10] 58% | viability, T/C [11] 15.1% | viability, T/C [12] 7.18% | viability, T/C [13] 106% | viability, T/C [14] 98.7% | viability, T/C [15] 99.9% | viability, T/C [16] 60.7% | viability, T/C [17] 14.2% | viability, T/C [19] 102% | viability, T/C [20] 102% | viability, T/C [21] 107% | viability, T/C [22] 63.8% | viability, T/C [23] 15.3% | viability, T/C [25] 108% | viability, T/C [26] 96.1% | viability, T/C [27] 106% | viability, T/C [28] 66% | viability, T/C [29] 15.6% | viability, T/C [31] 103% | viability, T/C [32] 93.3% | viability, T/C [33] 105% | viability, T/C [34] 63.5% | viability, T/C [35] 17.4% | viability, T/C [36] 8.32%
1.31 µM: IC50 (second compound 0.316 µM)
1.4 µM: IC50 (second compound 10 µM)
1.38 µM: IC50 (second compound 1 µM)
active: viability, T/C [6] 7.71% | viability, T/C [18] 6.94% | viability, T/C [24] 6.9% | viability, T/C [30] 8.34%
1.23 µM: IC50 (second compound 0.1 µM)
1.16 µM: IC50 (second compound 0.0316 µM)
1.44 µM: IC50 (second compound 3.16 µM)

COc1ncnc(C2CC2)c1-c1ncc2cnn(Cc3ccc(-c4nc(C(F)(F)F)cn4C(C)C)cc3)c2n1 + CN(C)c1ccc(Nc2c3ccc(NC(=O)CCN4CCCC4)cc3nc3cc(NC(=O)CCN4CCCC4)ccc23)cc1
> 10 µM: IC50 (second compound 0.0316 µM) | IC50 (second compound 0.1 µM) | IC50 (second compound 0.316 µM) | IC50 (second compound 1 µM) | IC50 (second compound 3.16 µM) | IC50 (second compound 10 µM)
inactive: viability, T/C [1] 108% | viability, T/C [2] 100% | viability, T/C [3] 115% | viability, T/C [4] 104% | viability, T/C [5] 108% | viability, T/C [6] 104% | viability, T/C [7] 105% | viability, T/C [8] 105% | viability, T/C [9] 102% | viability, T/C [10] 103% | viability, T/C [11] 105% | viability, T/C [12] 114% | viability, T/C [13] 103% | viability, T/C [14] 110% | viability, T/C [15] 110% | viability, T/C [16] 101% | viability, T/C [17] 107% | viability, T/C [18] 105% | viability, T/C [19] 109% | viability, T/C [20] 91% | viability, T/C [21] 101% | viability, T/C [22] 112% | viability, T/C [23] 104% | viability, T/C [24] 102% | viability, T/C [25] 109% | viability, T/C [26] 102% | viability, T/C [27] 109% | viability, T/C [28] 104% | viability, T/C [29] 106% | viability, T/C [30] 104% | viability, T/C [31] 93% | viability, T/C [32] 101% | viability, T/C [33] 94% | viability, T/C [34] 98.9% | viability, T/C [35] 96.1% | viability, T/C [36] 92.8%

C=CC(=O)N1CCN(c2nc(=O)n(-c3c(C)ccnc3C(C)C)c3nc(-c4c(O)cccc4F)c(F)cc23)C(C)C1 (stereo not drawn) + Cc1[nH]c2ccc(F)cc2c1-c1nc2c3cccnc3c3ncccc3c2[nH]1
> 10 µM: IC50 (second compound 0.0316 µM) | IC50 (second compound 0.1 µM) | IC50 (second compound 0.316 µM) | IC50 (second compound 1 µM) | IC50 (second compound 3.16 µM) | IC50 (second compound 10 µM)
inactive: viability, T/C [1] 101% | viability, T/C [2] 102% | viability, T/C [3] 96.6% | viability, T/C [4] 94.5% | viability, T/C [5] 111% | viability, T/C [6] 135% | viability, T/C [7] 116% | viability, T/C [8] 97.8% | viability, T/C [9] 103% | viability, T/C [10] 93.3% | viability, T/C [11] 140% | viability, T/C [12] 149% | viability, T/C [13] 99% | viability, T/C [14] 102% | viability, T/C [15] 105% | viability, T/C [16] 113% | viability, T/C [17] 152% | viability, T/C [18] 150% | viability, T/C [19] 99.1% | viability, T/C [20] 103% | viability, T/C [21] 110% | viability, T/C [22] 120% | viability, T/C [23] 161% | viability, T/C [24] 141% | viability, T/C [25] 94.2% | viability, T/C [26] 95.5% | viability, T/C [27] 104% | viability, T/C [28] 93.6% | viability, T/C [29] 104% | viability, T/C [30] 52.9% | viability, T/C [31] 108% | viability, T/C [32] 99% | viability, T/C [33] 116% | viability, T/C [34] 96.3% | viability, T/C [35] 121% | viability, T/C [36] 79.8%

O=C(c1cc(Cc2n[nH]c(=O)c3ccccc23)ccc1F)N1CCN(C(=O)C2CC2)CC1 + Cc1[nH]c2ccc(F)cc2c1-c1nc2c3cccnc3c3ncccc3c2[nH]1
inactive: viability, T/C [1] 100% | viability, T/C [2] 88.9% | viability, T/C [3] 86.7% | viability, T/C [4] 102% | viability, T/C [5] 110% | viability, T/C [6] 80.6% | viability, T/C [7] 101% | viability, T/C [8] 97.4% | viability, T/C [9] 86.7% | viability, T/C [10] 103% | viability, T/C [11] 96.1% | viability, T/C [12] 91.5% | viability, T/C [13] 92.2% | viability, T/C [14] 105% | viability, T/C [15] 105% | viability, T/C [16] 94.8% | viability, T/C [17] 111% | viability, T/C [18] 83% | viability, T/C [19] 96.2% | viability, T/C [20] 95.5% | viability, T/C [21] 102% | viability, T/C [22] 102% | viability, T/C [23] 117% | viability, T/C [24] 74.7% | viability, T/C [25] 80.5% | viability, T/C [26] 78.7% | viability, T/C [27] 84.3% | viability, T/C [28] 73.4% | viability, T/C [29] 74.7% | viability, T/C [30] 61.6% | viability, T/C [31] 94.1% | viability, T/C [32] 90.5% | viability, T/C [33] 105% | viability, T/C [34] 90.8% | viability, T/C [35] 91.3% | viability, T/C [36] 72.1%
> 10 µM: IC50 (second compound 0.0316 µM) | IC50 (second compound 0.1 µM) | IC50 (second compound 0.316 µM) | IC50 (second compound 1 µM) | IC50 (second compound 3.16 µM) | IC50 (second compound 10 µM)
